The values that follow come from US10369138B2, “Monobactam organic compounds for the treatment of bacterial infections” (Novartis AG, priority 2014, dated 2019).

The subject of one test is E. coli containing KPC-2. The test is described as follows: MIC by broth microdilution, E. coli containing KPC-2 (Ec KPC2 Iso). It is filed as cell-based. To be noted: Escherichia coli, read-out: Ec KPC2 Iso (MIC), E. coli containing KPC-2 (carbapenemase from Klebsiella pneumoniae). The essentials: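 Host E. coli BW25113 pspB carrying multicopy pBAD18-kan plasmid with constitutive TEM-promoter KPC-2 expression (periplasmic signal sequence); broth microdilution per CLSI in cation-adjusted Mueller-Hinton broth, inoculum ~5×10^5 CFU/mL, compounds twofold serially diluted from DMSO masters (10% DMSO in dilution series added).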
(In general: Broth dilution looks for growth in wells or tubes with falling amounts of substance.)

The test system of another test is E. coli strain 25922. The experiment in a line: MIC by broth microdilution, E. coli strain 25922. To be noted: Escherichia coli, 25922, E. coli strain 25922; read-out: Ec 25922 (MIC). It is filed as cell-based. The essentials:
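CLSI broth microdilution in cation-adjusted Mueller-Hinton broth, inoculum about 5×10^5 CFU/mL, 10% DMSO from the diluted series, 20 h at 35-37° C. MIC is the lowest concentration preventing visible growth, read by eye and at 600 nm.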

Values after ≈ are worked out from the molar mass of the structure shown.

On to `NCc1nn(C[C@@H]2[C@H](NC(=O)/C(=N\OC3(C(=O)O)CC3)c3csc(N)n3)C(=O)N2S(=O)(=O)O)nc1CN` [Example 109, 1-(((Z)-(1-(2-aminothiazol-4-yl)-2-(((2R,3S)-2-((4,5-bis(aminomethyl)-2H-1,2,3-triazol-2-yl)methyl)-4-oxo-1-sulfoazetidin-3-yl)amino)-2-oxoethylidene)amino)oxy)cyclopropanecarboxylic acid], for which the MIC – broadly, the lowest concentration that inhibits growth of the organism – came to 0.25 µg/mL (≈ 0.448 µM) in the test on E. coli containing KPC-2 and 0.125 µg/mL (≈ 0.224 µM) in the test on E. coli strain 25922.

Take `CC(C)(O/N=C(\C(=O)N[C@@H]1C(=O)N(S(=O)(=O)O)[C@@H]1Cn1cc(CNC(=O)C[N+](C)(C)C)nn1)c1csc(N)n1)C(=O)O` [Example 43, (3S,4R)-3-((Z)-2-(2-aminothiazol-4-yl)-2-(((2-carboxypropan-2-yl)oxy)imino)acetamido)-2-oxo-4-((4-((2-(trimethylammonio)acetamido)methyl)-1H-1,2,3-triazol-1-yl)methyl)azetidine-1-sulfonate]: the minimal inhibitory concentration (MIC) in the test with E. coli containing KPC-2 and in the test on E. coli strain 25922 was 2 µg/mL each time.

For the compound `N=C(N)c1ccc(OC[C@H](O/N=C(\C(=O)N[C@@H]2C(=O)N(S(=O)(=O)O)[C@@H]2Cn2cncn2)c2csc(N)n2)C(=O)O)cc1` [Example 107, (S)-2-(((Z)-(2-(((2R,3S)-2-((1H-1,2,4-triazol-1-yl)methyl)-4-oxo-1-sulfoazetidin-3-yl)amino)-1-(2-aminothiazol-4-yl)-2-oxoethylidene)amino)oxy)-3-(4-carbamimidoylphenoxy)propanoic acid], the MIC in the test with E. coli containing KPC-2 and with E. coli strain 25922 was 0.25 µg/mL (≈ 0.402 µM) throughout.

As for `CC(C)(O/N=C(\C(=O)N[C@@H]1C(=O)N(S(=O)(=O)O)[C@@H]1Cn1cnnc1)c1csc(N)n1)C(=O)O` [Example 56, 2-(((Z)-(2-(((2R,3S)-2-((4H-1,2,4-triazol-4-yl)methyl)-4-oxo-1-sulfoazetidin-3-yl)amino)-1-(2-aminothiazol-4-yl)-2-oxoethylidene)amino)oxy)-2-methylpropanoic acid], the MIC in the test on E. coli containing KPC-2 stood at 16 µg/mL (≈ 31.8 µM); in the test on E. coli strain 25922, 4 µg/mL (≈ 7.96 µM).

Take `Nc1nc(/C(=N/OC2(C(=O)O)CC2)C(=O)N[C@@H]2C(=O)N(S(=O)(=O)O)[C@@H]2Cn2ncc(CNC3CCNCC3)n2)cs1` [Example 112, 1-(((Z)-(1-(2-aminothiazol-4-yl)-2-oxo-2-(((3S,4R)-2-oxo-4-((4-((piperidin-4-ylamino)methyl)-2H-1,2,3-triazol-2-yl)methyl)-1-sulfoazetidin-3-yl)amino)ethylidene)amino)oxy)cyclopropanecarboxylic acid]: the MIC in the test on E. coli containing KPC-2 and with E. coli strain 25922 was 0.5 µg/mL (≈ 0.816 µM) in each case.

Take `N=C(NCCN)c1ccc(OC[C@H](O/N=C(\C(=O)N[C@@H]2C(=O)N(S(=O)(=O)O)[C@@H]2Cn2ncc(CN)n2)c2csc(N)n2)C(=O)O)cc1` [Example 66, (S)-3-(4-(N-(2-aminoethyl)carbamimidoyl)phenoxy)-2-(((Z)-(2-(((2R,3S)-2-((4-(aminomethyl)-2H-1,2,3-triazol-2-yl)methyl)-4-oxo-1-sulfoazetidin-3-yl)amino)-1-(2-aminothiazol-4-yl)-2-oxoethylidene)amino)oxy)propanoic acid]: the MIC in the test with E. coli containing KPC-2 was determined as 2 µg/mL (≈ 2.88 µM); in the test with E. coli strain 25922, 1 µg/mL (≈ 1.44 µM).

For the compound `Nc1nc(/C(=N/OC2(C(=O)O)CCC2)C(=O)N[C@@H]2C(=O)N(S(=O)(=O)O)[C@@H]2Cn2cncn2)cs1` [Example 32, 1-(((Z)-(2-(((2R,3S)-2-((1H-1,2,4-triazol-1-yl)methyl)-4-oxo-1-sulfoazetidin-3-yl)amino)-1-(2-aminothiazol-4-yl)-2-oxoethylidene)amino)oxy)cyclobutanecarboxylic acid], the MIC amounted to 1 µg/mL (≈ 1.94 µM) in the test with E. coli containing KPC-2 and 2 µg/mL (≈ 3.89 µM) in the test with E. coli strain 25922.

Regarding `Nc1nc(/C(=N/OC2(C(=O)O)CC2)C(=O)N[C@@H]2C(=O)N(S(=O)(=O)O)[C@@H]2CN2CCNC2=O)cs1` [Example 108, 1-(((Z)-(1-(2-aminothiazol-4-yl)-2-oxo-2-(((3S,4R)-2-oxo-4-((2-oxoimidazolidin-1-yl)methyl)-1-sulfoazetidin-3-yl)amino)ethylidene)amino)oxy)cyclopropanecarboxylic acid], the MIC with E. coli containing KPC-2 is ≤ 0.06 µg/mL; with E. coli strain 25922 it was 0.125 µg/mL (≈ 0.242 µM).

`N=C(NCc1cnn(C[C@@H]2[C@H](NC(=O)/C(=N\OC3(C(=O)O)CC3)c3csc(N)n3)C(=O)N2S(=O)(=O)O)n1)NCC1CNC1` [Example 126, 1-(((Z)-(1-(2-aminothiazol-4-yl)-2-(((2R,3S)-2-((4-((3-(azetidin-3-ylmethyl)guanidino)methyl)-2H-1,2,3-triazol-2-yl)methyl)-4-oxo-1-sulfoazetidin-3-yl)amino)-2-oxoethylidene)amino)oxy)cyclopropanecarboxylic acid]: the minimum inhibitory concentration (MIC) in the test with E. coli containing KPC-2 and in the test on E. coli strain 25922 was 0.5 µg/mL (≈ 0.78 µM) in each case.

For `CN(Cc1ccccc1)Cc1cnn(C[C@@H]2[C@H](NC(=O)/C(=N\OC(C)(C)C(=O)O)c3csc(N)n3)C(=O)N2S(=O)(=O)O)n1` [Example 83, 2-(((Z)-(1-(2-aminothiazol-4-yl)-2-(((2R,3S)-2-((4-((benzyl(methyl)amino)methyl)-2H-1,2,3-triazol-2-yl)methyl)-4-oxo-1-sulfoazetidin-3-yl)amino)-2-oxoethylidene)amino)oxy)-2-methylpropanoic acid], the MIC in the test with E. coli containing KPC-2 and in the test on E. coli strain 25922 was 32 µg/mL (≈ 50.3 µM) in each case.

In the case of `CC(C)(O/N=C(\C(=O)N[C@@H]1C(=O)N(S(=O)(=O)O)[C@@H]1CN1C[C@H](CO)OC1=O)c1csc(N)n1)C(=O)O` [Example 72, 2-(((Z)-(1-(2-aminothiazol-4-yl)-2-(((2R,3S)-2-(((R)-5-(hydroxymethyl)-2-oxooxazolidin-3-yl)methyl)-4-oxo-1-sulfoazetidin-3-yl)amino)-2-oxoethylidene)amino)oxy)-2-methylpropanoic acid], the MIC in the test on E. coli containing KPC-2 and with E. coli strain 25922 was 4 µg/mL (≈ 7.27 µM) throughout.

`NCCNC(=O)NCc1cnn(C[C@@H]2[C@H](NC(=O)/C(=N\OC3(C(=O)O)CC3)c3csc(N)n3)C(=O)N2S(=O)(=O)O)n1` [Example 135, 1-(((Z)-(2-(((2R,3S)-2-((4-((3-(2-aminoethyl)ureido)methyl)-2H-1,2,3-triazol-2-yl)methyl)-4-oxo-1-sulfoazetidin-3-yl)amino)-1-(2-aminothiazol-4-yl)-2-oxoethylidene)amino)oxy)cyclopropanecarboxylic acid]: the MIC with E. coli containing KPC-2 and in the test on E. coli strain 25922 was 0.5 µg/mL (≈ 0.812 µM) in each case.

For `CNCc1cnn(C[C@@H]2[C@H](NC(=O)/C(=N\OC(C)(C)C(=O)O)c3csc(N)n3)C(=O)N2S(=O)(=O)O)n1` [Example 100, 2-(((Z)-(1-(2-aminothiazol-4-yl)-2-(((2R,3S)-2-((4-((methylamino)methyl)-2H-1,2,3-triazol-2-yl)methyl)-4-oxo-1-sulfoazetidin-3-yl)amino)-2-oxoethylidene)amino)oxy)-2-methylpropanoic acid], the results for the MIC with E. coli containing KPC-2 and in the test with E. coli strain 25922 were 4 µg/mL (≈ 7.33 µM) and 1 µg/mL (≈ 1.83 µM), respectively.

As to `N=C(NC1CCNCC1)c1ccc(OC[C@H](O/N=C(\C(=O)N[C@@H]2C(=O)N(S(=O)(=O)O)[C@@H]2Cn2cncn2)c2nsc(N)n2)C(=O)O)cc1` [Example 75, (S)-2-(((Z)-(2-(((2R,3S)-2-((1H-1,2,4-triazol-1-yl)methyl)-4-oxo-1-sulfoazetidin-3-yl)amino)-1-(5-amino-1,2,4-thiadiazol-3-yl)-2-oxoethylidene)amino)oxy)-3-(4-(N-(piperidin-4-yl)carbamimidoyl)phenoxy)propanoic acid], the MIC in the test on E. coli containing KPC-2 and in the test with E. coli strain 25922 was 0.5 µg/mL (≈ 0.707 µM) each time.

Turning to `NCCCNCc1nnn(C[C@@H]2[C@H](NC(=O)/C(=N\OC3(C(=O)O)CC3)c3csc(N)n3)C(=O)N2S(=O)(=O)O)n1` [Example 96, 1-(((Z)-(2-(((2R,3S)-2-((5-(((3-aminopropyl)amino)methyl)-2H-tetrazol-2-yl)methyl)-4-oxo-1-sulfoazetidin-3-yl)amino)-1-(2-aminothiazol-4-yl)-2-oxoethylidene)amino)oxy)cyclopropanecarboxylic acid], the MIC in the test with E. coli containing KPC-2 was found to be 1 µg/mL (≈ 1.7 µM); with E. coli strain 25922 it was 0.25 µg/mL (≈ 0.425 µM).

`N=C(NC1CCNCC1)c1ccc(OC[C@H](O/N=C(\C(=O)N[C@@H]2C(=O)N(S(=O)(=O)O)[C@@H]2CN2CCOC2=O)c2csc(N)n2)C(=O)O)cc1` [Example 64, (S)-2-(((Z)-(1-(2-aminothiazol-4-yl)-2-oxo-2-(((3S,4R)-2-oxo-4-((2-oxooxazolidin-3-yl)methyl)-1-sulfoazetidin-3-yl)amino)ethylidene)amino)oxy)-3-(4-(N-(piperidin-4-yl)carbamimidoyl)phenoxy)propanoic acid]: the MIC turned out to be 0.25 µg/mL (≈ 0.345 µM) in the test with E. coli containing KPC-2 and 0.5 µg/mL (≈ 0.691 µM) in the test on E. coli strain 25922.

As to `CC(C)(CCN)NCc1cnn(C[C@@H]2[C@H](NC(=O)/C(=N\OC3(C(=O)O)CC3)c3csc(N)n3)C(=O)N2S(=O)(=O)O)n1` [Example 132, 1-(((Z)-(2-(((2R,3S)-2-((4-(((4-amino-2-methylbutan-2-yl)amino)methyl)-2H-1,2,3-triazol-2-yl)methyl)-4-oxo-1-sulfoazetidin-3-yl)amino)-1-(2-aminothiazol-4-yl)-2-oxoethylidene)amino)oxy)cyclopropanecarboxylic acid], the MIC in the test with E. coli containing KPC-2 and in the test on E. coli strain 25922 was 1 µg/mL (≈ 1.63 µM) throughout.

In the case of `Nc1nc(/C(=N/OCC(=O)O)C(=O)N[C@@H]2C(=O)N(S(=O)(=O)O)[C@@H]2Cn2cncn2)cs1` [Example 17, 2-(((Z)-(2-(((2R,3S)-2-((1H-1,2,4-triazol-1-yl)methyl)-4-oxo-1-sulfoazetidin-3-yl)amino)-1-(2-aminothiazol-4-yl)-2-oxoethylidene)amino)oxy)acetic acid], the results for the minimal inhibitory concentration (MIC) in the test with E. coli containing KPC-2 and with E. coli strain 25922 were 0.25 µg/mL (≈ 0.527 µM) and 0.5 µg/mL (≈ 1.05 µM), respectively.
